The values that follow come from patent US11980674B2, “Imaging of metastatic or recurrent cancer” (Blue Earth Diagnostics Limited, priority 2020, dated 2024).

The conditions of data set [1]: human, in vivo. Here is the method:
FIGS. 1a and 1b show accumulation of FACBC in the Virchow's node when the FACBC is injected into the left arm.
In some embodiments, the right arm may be preferred as stasis in the axillary vein upon injection in the left arm may be misinterpreted as a metastatic lymph node called Virchow's node, which is located in the left supraclavicular fossa (the area above the left clavicle, or collar bone). For example, FIGS. 1a and 1b show accumulation of FACBC in the Virchow's node when the FACBC is injected into the left arm.

The subject of data set [2] is known prostate carcinoma recurrence. The data set is described as follows: PET time activity curves (FIG. 3). It is filed as in vivo, human. Particulars: for time at which plateau was reached: remained constant throughout the imaging period. The method, then: Regions in marrow (ilium), muscle (gluteus), and bladder reached a plateau at 4.5 minutes that remained constant throughout the imaging period.

Take `N[C@]1(C(=O)O)C[C@@H](F)C1` [fluciclovine, anti-1-amino-3-^18F-fluorocyclobutane-1-carboxylic acid]: in data set [1], the “standardized uptake value (SUV)” value is recorded as above 200. Further, the “time at which plateau was reached” value in data set [2] (bladder), in data set [2] (marrow (ilium)) and in data set [2] (muscle (gluteus)) was 4.5 min in each case. Moreover, the “time of maximum uptake” value in data set [2] (known prostate carcinoma recurrence) was determined as 4.5 min. The “plateau of uptake lasting to” value in data set [2] (known prostate carcinoma recurrence, after maximum at 4.5 minutes) was found to be 30 min. This compound had a gradual clearance in data set [2] (known prostate carcinoma recurrence, after plateau, out to 60 minutes) of 9 %/min.
